Source: patent US20170121768A1, “ATRIAL FIBRILLATION THERAPY” (The University of Birmingham, priority 2014, published 2017)

Tests used:
[1] = tested on: Pitx2c+/- mouse heart (left atrium); assay: Electrophysiological study in the isolated Langendorff-perfused beating heart, Pitx2c+/- mice
Text: (§1) The inventors studied the effects of the sodium channel blocker flecainide in the isolated, beating heart of wild type mice and mice with a heterozygous deletion of the Pitx2c gene. This mouse model (provided by Nigel Brown, St George's London) is an established model for reduced Pitx2 mRNA expression that is susceptible to AF. […] PITX2c^+/− and WT hearts (3-4 months old), were rapidly excised and Langendorff-perfused to record left atrial (LA) monophasic action potential duration. In this preparation, the beating heart is perfused with a warm, oxygenated modified Krebs-Henseleit solution containing (in mmol/1): NaCl 118; NaHCO3 24.88; KH2PO 1.18; Glucose 5.55; Na-Pyruvate 5; MgSO4 0.83; CaCl2 1.8; KCl 3.52 (95% O2-5% CO2, pH 7.4) at constant perfusion pressure (100±5 mmHg) and coronary flow (4±0.5 ml/min). Thereby, detailed electrophysiological measurements can be taken for 1-2 hours in the beating, functioning, intact heart (perfusate temperature 37° C., perfusion flow rate 3-5 mL/min) (Fabritz et al., Basic Res Cardiol 2003; 98:25-32). An octapolar murine electrophysiology catheter (0.5 mm electrode spacing, CIB'ER MOUSE, NuMED, Hopkinton, N.Y., USA) was inserted into the right atrium (RA) and right ventricle for pacing. Atrial and ventricular electrograms and monophasic action potential (MAP) from the left atrium were simultaneously recorded. After instrumentation, the hearts were subjected to a stabilization period of 10 minutes, followed by observation of spontaneous sinus rhythm for 5 minutes to provoke repolarization-related arrhythmias. Then the right atrium was paced at constant physiological heart rates (80-120 ms paced cycle length) for 1.5 minutes of pacing per heart rate to record steady-state action potential duration, and premature right atrial stimulation was performed using trains of 8 beats following by a premature stimulus in 2 ms steps to determine the effective refractory period (ERP) and inducibility of arrhythmias. Arrhythmias>1 second were counted. The pacing protocol was repeated after adding flecainide acetate (1 μm) to the perfusate. Experiments were accepted for analysis of action potential duration and activation time if they met published quality criteria and if MAPs were stable. […] were accepted for analysis of action potentials and activation times, and signals>0.5 mV amplitude were accepted for evaluation of arrhythmias. Recordings were manually screened for arrhythmias. Atrial fibrillation was defined as >5 closely couple polymorphic consecutive atrial ectopic beats with a cycle length shorter than sinus-rhythm cycle length.

[2] = tested on: wild type mouse heart (left atrium); assay: Electrophysiological study in the isolated Langendorff-perfused beating heart, wild type mice
Text: as §1

Pitx2c+/- left atria = assay: Transmembrane potential recordings in isolated, superfused left atria, Pitx2c+/-; design: species or system mouse; conditions: sharp electrodes
Experimental: (§2) Transmembrane action potentials were recorded from isolated superfused left atria using borosilicate glass microelectrodes (tip resistance 15-30 MΩ), filled with 3 M KCl. […] LA were paced at different cycle lengths at 2 ms pulse width at 2× diastolic threshold through bipolar platinum electrodes. APD was analysed off line (spike 2, CED, UK). After 15 min pacing for equilibration, preparations were paced successively at increasing frequencies from 0.5 to 10 Hz, with 200 beats at each frequency to ensure steady state prior to recording.

wildtype left atria = assay: Transmembrane potential recordings in isolated, superfused left atria, wild type; design: species or system mouse; conditions: sharp electrodes
Experimental: as §2

Structure (SMILES) | effective refractory period (ERP) ([1]; Pitx2c+/- hearts after flecainide perfusion, compared with wild-type) | suppression of inducible atrial fibrillation ([1]; Pitx2c+/- hearts with AF at baseline (8/21), flecainide acetate 1 μm in perfusate, premature atrial stimulation) | atrial action potential duration (APD) ([1]; Pitx2c+/- hearts, flecainide perfusion, paced cycle lengths 80-100-120 ms) | post-repolarization refractoriness ([1]; Pitx2c+/- mice, 80 ms paced cycle length, flecainide perfusion) | atrial activation times ([1]; Pitx2c+/- mice, after flecainide perfusion) | atrial action potential duration (APD) ([2]; WT hearts, flecainide perfusion, paced cycle lengths 80-100-120 ms) | post-repolarization refractoriness ([2]; WT mice, 80 ms paced cycle length, flecainide perfusion) | hearts with arrhythmias ([2]; wild type hearts with flecainide (baseline 4/16), arrhythmias >1 second counted) | suppression of inducible atrial fibrillation ([2]; wild type hearts, flecainide acetate 1 μm in perfusate, premature atrial stimulation) | atrial activation times ([2]; wild-type mice, after flecainide perfusion) | resting membrane potential (Pitx2c+/- left atria) | resting membrane potential (wildtype left atria) | atrial APD ([1]; Pitx2c+/- hearts, sotalol 10 μM, three pairs of mice) | atrial APD ([2]; WT hearts, sotalol 10 μM, three pairs of mice)
O=C(NCC1CCCCN1)c1cc(OCC(F)(F)F)ccc1OCC(F)(F)F (centres unmarked) [flecainide] | increases effective refractory periods | suppressed atrial fibrillation in all Pitx2c+/− hearts | does not alter atrial APD | 12 ms | marked effect | does not alter atrial APD | 7.5 ms | 4/11 | did not suppress atrial fibrillation | negligible effect | did not alter resting membrane potential | did not alter resting membrane potential |  | 
CC(C)NCC(O)c1ccc(NS(C)(=O)=O)cc1 (centres unmarked) [sotalol, d,l sotalol] |  |  |  |  |  |  |  |  |  |  |  |  | did not alter atrial APD | prolonged atrial APD
